From ChEMBL document CHEMBL1201862, “PubChem BioAssay data set” (2004)
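How tested: cells in 96-well plates exposed to compound for 48 hours at five concentrations. GI50 is the concentration that inhibits growth by half.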 Activity calls are given as the source filed them. Cut-off read from the data, not from the text of the source: active = GI50 up to about 1.1 µM and inactive = higher.

Legend:
Experiment in all cases: NCI anticancer screen, dose series, 48 h
UO-31 = system: UO-31
SNB-19 = system: SNB-19
IGROV-1 = system: IGROV-1
UACC-62 = system: UACC-62
DLD-1 = system: DLD-1
UACC-257 = system: UACC-257
A549 = system: A549
A498 = system: A498
786-0 = system: 786-0
HOP-62 = system: HOP-62
SF-295 = system: SF-295
OVCAR-8 = system: OVCAR-8
SK-MEL-28 = system: SK-MEL-28
EKVX = system: EKVX
M14 = system: M14
NCI-H226 = system: NCI-H226
NCI/ADR-RES = system: NCI/ADR-RES
MDA-N = system: MDA-N
Hs-578T = system: Hs-578T
T47D = system: T47D

| Structure (SMILES) | GI50 (UO-31) | GI50 (SNB-19) | GI50 (IGROV-1) | GI50 (UACC-62) | GI50 (DLD-1) | GI50 (UACC-257) | GI50 (A549) | GI50 (A498) | GI50 (786-0) | GI50 (HOP-62) | GI50 (SF-295) | GI50 (OVCAR-8) | GI50 (SK-MEL-28) | GI50 (EKVX) | GI50 (M14) | GI50 (NCI-H226) | GI50 (NCI/ADR-RES) | GI50 (MDA-N) | GI50 (Hs-578T) | GI50 (T47D) |
| --- | --- | --- | --- | --- | --- | --- | --- | --- | --- | --- | --- | --- | --- | --- | --- | --- | --- | --- | --- | --- |
| CNc1ccc(/C=C2\C=Cc3ccccc32)cc1 | 10.2 µM (inactive) | 61.4 µM (inactive) | 24.2 µM (inactive) | 20.1 µM (inactive) | 31.3 µM (inactive) | 23.4 µM (inactive) | 24 µM (inactive) | 28.1 µM (inactive) | 31.5 µM (inactive) | 18.9 µM (inactive) | 31.3 µM (inactive) | 64.3 µM (inactive) | 88.5 µM (inactive) | 20.1 µM (inactive) | 16.3 µM (inactive) | 25.1 µM (inactive) |  |  |  |  |
| N#CCC(=O)N/N=C(\C(=O)Nc1ccc(Cl)c(Cl)c1)C1CN(c2ccccc2)N=C1N (stereo not drawn) | > 100 µM (inactive) |  | > 100 µM (inactive) | > 100 µM (inactive) | > 100 µM (inactive) | > 100 µM (inactive) | > 100 µM (inactive) | > 100 µM (inactive) | > 100 µM (inactive) | > 100 µM (inactive) | > 100 µM (inactive) | > 100 µM (inactive) | > 100 µM (inactive) | > 100 µM (inactive) | > 100 µM (inactive) | > 100 µM (inactive) |  |  |  |  |
| O=Cc1ccc(-c2ccc(-c3ccc(C=O)s3)o2)s1 | 68.5 µM (inactive) | > 88.1 µM (inactive) | 3.27 µM (inactive) | 0.108 µM (active) | 74.5 µM (inactive) | 2.61 µM (inactive) | > 81.7 µM (inactive) | 0.284 µM (active) | 23.8 µM (inactive) | 8.63 µM (inactive) | > 77.3 µM (inactive) | > 100 µM (inactive) | 98.4 µM (inactive) | > 53.3 µM (inactive) | > 100 µM (inactive) | 0.656 µM (active) | 61.5 µM (inactive) | 60.3 µM (inactive) |  |  |
| Cc1ccccc1NC(=O)C(=O)C(C#N)c1ccccc1C (stereo not drawn) | > 100 µM (inactive) | > 100 µM (inactive) | > 100 µM (inactive) | > 100 µM (inactive) | > 100 µM (inactive) | > 100 µM (inactive) | > 100 µM (inactive) | > 100 µM (inactive) | > 100 µM (inactive) | > 100 µM (inactive) | > 100 µM (inactive) | > 100 µM (inactive) | > 100 µM (inactive) | > 100 µM (inactive) | > 100 µM (inactive) | > 100 µM (inactive) |  |  |  |  |
| Cc1c2c(cc3c(=O)ccn(CCN(C)C)c13)c(=O)ccn2CCN(C)C | 10.3 µM (inactive) | 8.34 µM (inactive) | 12.4 µM (inactive) | 17.2 µM (inactive) | 6.84 µM (inactive) | 18.3 µM (inactive) | 13.7 µM (inactive) | 21.4 µM (inactive) | 4.13 µM (inactive) | 6.62 µM (inactive) | 7.31 µM (inactive) | 4.76 µM (inactive) | 20.4 µM (inactive) | 13 µM (inactive) | 12.5 µM (inactive) | 14 µM (inactive) |  |  |  |  |
| CC(=O)Nc1ccc(C2C(C(=O)Nc3ccccc3)=C(C)NC(C)=C2C(=O)Nc2ccccc2)cc1 | > 100 µM (inactive) | > 100 µM (inactive) | > 100 µM (inactive) | > 80.5 µM (inactive) | 97.5 µM (inactive) | > 100 µM (inactive) | > 100 µM (inactive) | > 100 µM (inactive) | > 100 µM (inactive) | > 100 µM (inactive) | > 100 µM (inactive) | > 100 µM (inactive) | > 100 µM (inactive) | > 100 µM (inactive) | > 100 µM (inactive) | > 100 µM (inactive) |  |  |  |  |
| O=C1C2C(C(=O)N1c1ccccc1)C1c3ccccc3C2C2C(=O)N(c3ccccc3)C(=O)C21 (stereo not drawn) | 12.7 µM (inactive) | 6.27 µM (inactive) | > 100 µM (inactive) | 6.78 µM (inactive) | 2.73 µM (inactive) | > 100 µM (inactive) | 5.86 µM (inactive) | 6.71 µM (inactive) | 3.89 µM (inactive) |  | 3.48 µM (inactive) | 7.08 µM (inactive) | 26.2 µM (inactive) | > 100 µM (inactive) | 2.85 µM (inactive) | 28.6 µM (inactive) |  |  |  |  |
| O=S1OC2(c3ccccc3-c3ccccc32)c2ccccc21 (stereo not drawn) | > 100 µM (inactive) | > 100 µM (inactive) | > 100 µM (inactive) | > 100 µM (inactive) | > 100 µM (inactive) | > 100 µM (inactive) | > 100 µM (inactive) | > 100 µM (inactive) | > 100 µM (inactive) | 40.6 µM (inactive) | > 100 µM (inactive) | > 100 µM (inactive) | > 100 µM (inactive) | > 100 µM (inactive) | > 100 µM (inactive) | > 100 µM (inactive) |  |  |  |  |
| CC1OC(=O)C2CC3CCCCC3C(/C=C/C3CCCC(C)N3C)C12 (stereo not drawn) | > 100 µM (inactive) | > 100 µM (inactive) | > 100 µM (inactive) | > 100 µM (inactive) | > 100 µM (inactive) | > 100 µM (inactive) | > 100 µM (inactive) | > 100 µM (inactive) | > 100 µM (inactive) | > 100 µM (inactive) | 63.1 µM (inactive) | > 100 µM (inactive) | > 100 µM (inactive) | > 100 µM (inactive) | > 100 µM (inactive) | > 100 µM (inactive) | > 100 µM (inactive) | > 100 µM (inactive) | > 100 µM (inactive) | > 100 µM (inactive) |
| O=C1C2=C(c3ccccc31)C(c1ccccc1Cl)NC(S)=N2 (stereo not drawn) | 30.6 µM (inactive) | 52.1 µM (inactive) | 56.8 µM (inactive) | 34.6 µM (inactive) | 64.9 µM (inactive) | 51.3 µM (inactive) | 85.1 µM (inactive) | 61.8 µM (inactive) | > 100 µM (inactive) | > 100 µM (inactive) | 51.1 µM (inactive) | 53 µM (inactive) | 55.5 µM (inactive) | > 100 µM (inactive) | 51.8 µM (inactive) | 8.65 µM (inactive) |  |  |  |  |
| CCOC(=O)C(=O)Nc1c(CC)cccc1C(C)C | > 100 µM (inactive) | > 100 µM (inactive) | > 100 µM (inactive) | > 100 µM (inactive) | > 100 µM (inactive) | > 100 µM (inactive) | > 100 µM (inactive) | > 100 µM (inactive) | > 100 µM (inactive) | > 100 µM (inactive) | > 100 µM (inactive) | > 100 µM (inactive) | > 100 µM (inactive) | > 100 µM (inactive) | > 100 µM (inactive) | > 100 µM (inactive) |  |  |  |  |
| Clc1ccc2cccc3c2c1C1OC3c2ccccc21 (stereo not drawn) | > 100 µM (inactive) | > 100 µM (inactive) | > 100 µM (inactive) | > 100 µM (inactive) | > 100 µM (inactive) | > 100 µM (inactive) | > 100 µM (inactive) | > 100 µM (inactive) | > 100 µM (inactive) | > 100 µM (inactive) | > 100 µM (inactive) | > 100 µM (inactive) | > 100 µM (inactive) | > 100 µM (inactive) | > 100 µM (inactive) | > 100 µM (inactive) |  |  |  |  |
| CCCCCCCCCCCC[S+](C)C | 10.1 µM (inactive) | 6.59 µM (inactive) | 2 µM (inactive) | 6.4 µM (inactive) | 8.81 µM (inactive) | 4.18 µM (inactive) | 11.5 µM (inactive) | 10.7 µM (inactive) | 1.69 µM (inactive) | 0.665 µM (active) | 5.87 µM (inactive) | 4.67 µM (inactive) | 10.5 µM (inactive) | 4.83 µM (inactive) | 5.14 µM (inactive) | 1.77 µM (inactive) | > 44.1 µM (inactive) | 1.23 µM (inactive) |  | 0.516 µM (active) |
| COC(=O)c1oc([N+](=O)[O-])c(-c2ccccc2)c1-c1ccccc1 | > 100 µM (inactive) | > 100 µM (inactive) | > 100 µM (inactive) | 67 µM (inactive) | 76.2 µM (inactive) | > 100 µM (inactive) | > 100 µM (inactive) | > 100 µM (inactive) | > 100 µM (inactive) | > 100 µM (inactive) | > 100 µM (inactive) | > 100 µM (inactive) | > 100 µM (inactive) | > 100 µM (inactive) | > 100 µM (inactive) | > 100 µM (inactive) |  |  |  |  |
| C=CCn1c2c(sc1=S)C(S)NC=N2 (stereo not drawn) | 34.1 µM (inactive) | 99.8 µM (inactive) | 88.5 µM (inactive) | 27.5 µM (inactive) | > 100 µM (inactive) | 71 µM (inactive) | 69 µM (inactive) | 30.8 µM (inactive) | > 100 µM (inactive) | 39 µM (inactive) | 61.2 µM (inactive) | > 100 µM (inactive) | > 100 µM (inactive) | 49.5 µM (inactive) | > 100 µM (inactive) | > 100 µM (inactive) |  |  |  |  |
| C=C1C(=O)OC2/C=C(\C=O)CC/C=C(\C)C(O)C[C@@H]12 (stereo partly drawn) | 13.3 µM (inactive) | 15.4 µM (inactive) | 17.5 µM (inactive) | 5.87 µM (inactive) | 2.39 µM (inactive) | 5.93 µM (inactive) | 16.1 µM (inactive) | 10.2 µM (inactive) | 2.85 µM (inactive) | 28.1 µM (inactive) | 13.7 µM (inactive) | 3.17 µM (inactive) | 4.42 µM (inactive) | 15.6 µM (inactive) | 3.36 µM (inactive) | 20.4 µM (inactive) |  |  |  |  |
